How the values were obtained:
[1] = tested on: ASPC-1 pancreatic cancer cell line; experiment: MTT assay: in vitro inhibition of growth by deuterium oxide; format: cell-based, human
Method: (§1) Studies of in vitro inhibition of growth of human tumor cells by deuterium oxide, by the MTT (3-(4,5-dimethylthiazol-2-yl)-2,5-diphenyltetrazolium bromide) assay
(§2) 1. A bottle of cells that had been cultured for 3 to 4 days and were in the exponential phase was taken, a suitable amount of 0.25% Trypsin-EDTA solution was added thereto to detach the cells from the wall, and the cells were suspended in 10 ml RPMI 1640 medium containing 10% FBS. 2. The cells were counted on a hemocytometer, and generally viable cells should be not less than 97%. 3. The cell suspension was diluted with a complete medium to prepare a suspension containing 1×10^4 cells/ml. 4. To each well of a 12-well culture plate, 300 μl cell suspension was added. The addition of cells should be finished within 4 hours. The plate was placed in an incubator at 37° C. and 5% CO2 for 24 hours. 5. Powdery RPMI Medium 1640 (Gibco, USA, Cat#: 31800-022) was dissolved in deuterium oxide (provided by Cambridge Isotope Laboratories, Inc. (US)) to prepare a cell culture medium (unless particularly specified, all culture media used in the Examples hereinafter were prepared from powdery RPMI Medium 1640 and deuterium oxide) at a concentration shown in Table 1, which was added into the cell culture plate. 6. The cell culture plate was incubated for 3 days in an incubator at 37° C., 5% CO2 and 100% humidity. 7. A solution of 1 mg/ml MTT was prepared in a serum-free RPMI1640 medium, added to the plate at 200 μl/well, and incubated at 37° C. for 4 hours, to allow MTT to be reduced to formazan. 8. The supernatant was removed by pipetting, 200 μl DMSO was added to dissolve formazan, and the solution was well mixed on a platform shaker. 9. Absorbance of each well was measured on an ELISA reader with a detection wavelength of 570 nm and a reference wavelength of 450 nm. 10. The assay was repeated one more time.
(§3) Calculation of results: Inhibition of growth of tumor cells by deuterium oxide was calculated using tumor cells treated with sodium chloride physiological solution as a control group. Inhibition of cell growth was plotted against amounts of deuterium oxide to obtain a dose response curve, from which the half maximal inhibitory concentration (IC50) of deuterium oxide was derived.
(§4) Inhibition of tumor cell growth (%)=(1−OD test/OD control)×100%

[2] = tested on: HCT-116 colon cancer cell line; experiment: as above; format: cell-based, human
Method: as §1, §2, §3, §4

[3] = tested on: K562 leukemia cell line; experiment: as above; format: cell-based, human
Method: as §1, §2, §3, §4

[4] = tested on: NCI-1975 lung cancer cell line; experiment: as above; format: cell-based, human
Method: as §1, §2, §3, §4

[5] = tested on: NCI-H460 lung cancer cell line; experiment: as above; format: cell-based, human
Method: as §1, §2, §3, §4

[6] = tested on: SKOV3 ovarian cancer cell line; experiment: as above; format: cell-based, human
Method: as §1, §2, §3, §4

[7] = tested on: U2-OS osteosarcoma cell line; experiment: as above; format: cell-based, human
Method: as §1, §2, §3, §4

[8] = tested on: dogs; conditions: exogenous deuterium oxide; cited from earlier work

[2H]O[2H] [Deuterium oxide]
Inhibition of growth (%) ([1]; deuterium oxide 1.2% (v/v)): 0.64% | Inhibition of growth (%) ([1]; deuterium oxide 2.5% (v/v)): 6.35% | Inhibition of growth (%) ([1]; deuterium oxide 5% (v/v)): −0.20% | Inhibition of growth (%) ([1]; deuterium oxide 10% (v/v)): −4.88% | Inhibition of growth (%) ([1]; deuterium oxide 20% (v/v)): −7.26% | Inhibition of growth (%) ([1]; deuterium oxide 30% (v/v)): 9.70% | Inhibition of growth (%) ([1]; deuterium oxide 40% (v/v)): 23.99% | Inhibition of growth (%) ([1]; deuterium oxide 50% (v/v)): 44.14% | Inhibition of growth (%) ([1]; deuterium oxide 60% (v/v)): 52.22% | Inhibition of growth (%) ([1]; deuterium oxide 70% (v/v)): 70.14% | Inhibition of growth (%) ([1]; deuterium oxide 80% (v/v)): 85.83% | IC10 ([1]; expressed in v/v %): 11.80% | IC50 ([1]; expressed in v/v %): 57.00% | Inhibition of growth (%) ([2]; deuterium oxide 1.2% (v/v)): 11.81% | Inhibition of growth (%) ([2]; deuterium oxide 2.5% (v/v)): 31.55% | Inhibition of growth (%) ([2]; deuterium oxide 5% (v/v)): 21.64% | Inhibition of growth (%) ([2]; deuterium oxide 10% (v/v)): 18.58% | Inhibition of growth (%) ([2]; deuterium oxide 20% (v/v)): 23.32% | Inhibition of growth (%) ([2]; deuterium oxide 30% (v/v)): 30.21% | Inhibition of growth (%) ([2]; deuterium oxide 40% (v/v)): 37.43% | Inhibition of growth (%) ([2]; deuterium oxide 50% (v/v)): 48.43% | Inhibition of growth (%) ([2]; deuterium oxide 60% (v/v)): 66.31% | Inhibition of growth (%) ([2]; deuterium oxide 70% (v/v)): 70.42% | Inhibition of growth (%) ([2]; deuterium oxide 80% (v/v)): 94.62% | IC10 ([2]; expressed in v/v %): 0.25% | IC50 ([2]; expressed in v/v %): 51.13% | Inhibition of growth (%) ([3]; deuterium oxide 1.2% (v/v)): −2.47% | Inhibition of growth (%) ([3]; deuterium oxide 2.5% (v/v)): 6.51% | Inhibition of growth (%) ([3]; deuterium oxide 5% (v/v)): 4.23% | Inhibition of growth (%) ([3]; deuterium oxide 10% (v/v)): −7.60% | Inhibition of growth (%) ([3]; deuterium oxide 20% (v/v)): 9.10% | Inhibition of growth (%) ([3]; deuterium oxide 30% (v/v)): 22.72% | Inhibition of growth (%) ([3]; deuterium oxide 40% (v/v)): 39.51% | Inhibition of growth (%) ([3]; deuterium oxide 50% (v/v)): 55.51% | Inhibition of growth (%) ([3]; deuterium oxide 60% (v/v)): 70.13% | Inhibition of growth (%) ([3]; deuterium oxide 70% (v/v)): 88.59% | Inhibition of growth (%) ([3]; deuterium oxide 80% (v/v)): 93.24% | IC10 ([3]; expressed in v/v %): 14.83% | IC50 ([3]; expressed in v/v %): 51.72% | Inhibition of growth (%) ([4]; deuterium oxide 1.2% (v/v)): 0.84% | Inhibition of growth (%) ([4]; deuterium oxide 2.5% (v/v)): −8.29% | Inhibition of growth (%) ([4]; deuterium oxide 5% (v/v)): −7.44% | Inhibition of growth (%) ([4]; deuterium oxide 10% (v/v)): −4.95% | Inhibition of growth (%) ([4]; deuterium oxide 20% (v/v)): 5.60% | Inhibition of growth (%) ([4]; deuterium oxide 30% (v/v)): 6.66% | Inhibition of growth (%) ([4]; deuterium oxide 40% (v/v)): 24.03% | Inhibition of growth (%) ([4]; deuterium oxide 50% (v/v)): 39.10% | Inhibition of growth (%) ([4]; deuterium oxide 60% (v/v)): 51.93% | Inhibition of growth (%) ([4]; deuterium oxide 70% (v/v)): 79.65% | Inhibition of growth (%) ([4]; deuterium oxide 80% (v/v)): 87.23% | IC10 ([4]; expressed in v/v %): 27.00% | IC50 ([4]; expressed in v/v %): 62.61% | Inhibition of growth (%) ([5]; deuterium oxide 1.2% (v/v)): 1.15% | Inhibition of growth (%) ([5]; deuterium oxide 2.5% (v/v)): 9.40% | Inhibition of growth (%) ([5]; deuterium oxide 5% (v/v)): 11.27% | Inhibition of growth (%) ([5]; deuterium oxide 10% (v/v)): 9.47% | Inhibition of growth (%) ([5]; deuterium oxide 20% (v/v)): 11.60% | Inhibition of growth (%) ([5]; deuterium oxide 30% (v/v)): 30.58% | Inhibition of growth (%) ([5]; deuterium oxide 40% (v/v)): 42.05% | Inhibition of growth (%) ([5]; deuterium oxide 50% (v/v)): 53.09% | Inhibition of growth (%) ([5]; deuterium oxide 60% (v/v)): 69.50% | Inhibition of growth (%) ([5]; deuterium oxide 70% (v/v)): 82.33% | Inhibition of growth (%) ([5]; deuterium oxide 80% (v/v)): 98.06% | IC10 ([5]; expressed in v/v %): 5.60% | IC50 ([5]; expressed in v/v %): 48.75% | Inhibition of growth (%) ([6]; deuterium oxide 1.2% (v/v)): 1.82% | Inhibition of growth (%) ([6]; deuterium oxide 2.5% (v/v)): 7.35% | Inhibition of growth (%) ([6]; deuterium oxide 5% (v/v)): 8.33% | Inhibition of growth (%) ([6]; deuterium oxide 10% (v/v)): 9.65% | Inhibition of growth (%) ([6]; deuterium oxide 20% (v/v)): 12.64% | Inhibition of growth (%) ([6]; deuterium oxide 30% (v/v)): 16.69% | Inhibition of growth (%) ([6]; deuterium oxide 40% (v/v)): 32.76% | Inhibition of growth (%) ([6]; deuterium oxide 50% (v/v)): 41.80% | Inhibition of growth (%) ([6]; deuterium oxide 60% (v/v)): 59.84% | Inhibition of growth (%) ([6]; deuterium oxide 70% (v/v)): 74.07% | Inhibition of growth (%) ([6]; deuterium oxide 80% (v/v)): 90.42% | Inhibition of growth (%) ([7]; deuterium oxide 1.2% (v/v)): −2.81% | Inhibition of growth (%) ([7]; deuterium oxide 2.5% (v/v)): 4.20% | Inhibition of growth (%) ([7]; deuterium oxide 5% (v/v)): −1.64% | Inhibition of growth (%) ([7]; deuterium oxide 10% (v/v)): −8.55% | Inhibition of growth (%) ([7]; deuterium oxide 20% (v/v)): −3.12% | Inhibition of growth (%) ([7]; deuterium oxide 30% (v/v)): 11.99% | Inhibition of growth (%) ([7]; deuterium oxide 40% (v/v)): 10.23% | Inhibition of growth (%) ([7]; deuterium oxide 50% (v/v)): 18.21% | Inhibition of growth (%) ([7]; deuterium oxide 60% (v/v)): 23.43% | Inhibition of growth (%) ([7]; deuterium oxide 70% (v/v)): 29.64% | Inhibition of growth (%) ([7]; deuterium oxide 80% (v/v)): 45.84% | IC10 ([7]; expressed in v/v %): 24.99% | IC50 ([7]; expressed in v/v %): 86.25% | concentration in the body that causes a toxic effect [8]: 30%
